# What was measured:
# L1210 cell line = conditions: cited from earlier work
# boar spermatozoa [1] = assay: Shivering tail beating induction in exposed sperm cells; type: cell-based
# Method: (§1) This phenomenon may indicate that the cell still produce ATP and NADH in the cytoplasm after the OPA treatment, which differs from the effect caused by cation channel forming alamethicin, which depletes the sperm cells from motility, plasma membrane integrity as well as NADH and ATP production at similar concentrations. To confirm the effect of OPA on the plasma membrane permeability, the viability staining with propidium iodide (PI) and calcein-AM was performed after one day incubation at room temperature, (similar conditions as the JC-1 staining) where the EC50 value appeared at 1.6 μg mL^−1, over twice the concentrations that depolarized the mitochondria (Table 1).
# Microscopic area containing shivering sperm cell is enlarged at top right of the picture.
# boar spermatozoa [2] = assay: Cell membrane permeability assay on static sperm cells (PI and calcein-AM staining); type: cell-based; conditions: 24 h, read-out: Toxic endpoint EC50, Permeability to PI on static cells
# Method: as §1
# Cell membrane permeability assay on motile sperm cells was inspected by staining with PI (Molecular Probes, Eugene, OR, USA) in sperm cells induced to swim by shaking at 37 °C. […] This suspension was incubated for 15 min at 37 °C in dark and measured using a microplate reader (Fluoroskan Ascent, Thermo Scientific, Vantaa, Finland) at excitation and emission wavelengths of 544 nm and 600 nm, respectively. For observing plasma membrane damage by PI staining frozen-thawed semen was used as a positive control (for mortality of 100%) representing the maximal fluorescence emitted by the cells permeable to PI and Dulbeco’s phosphate buffered saline was applied as background control (blank). […]
# [3] = test system: human umbilical vein endothelial cells (HUVECs); conditions: cited from earlier work
# [4] = test system: feline fetus lung (FFL) cells; assay: Somatic cell toxicity assay (resazurin reduction), FFL; type: cell-based; conditions: Felis catus, read-out: IC50, cell proliferation
# Method: Viability assays, based on resazurin-resorufin transformation, represent excellent correlation to generally used reference assays, such as formazan- and tritiated thymidine based methods. In our experiments, proliferating murine neuroblastoma (MNA), feline fetus lung (FFL) and porcine kidney (PK-15) cells were treated with OPA. […] These values were remarkably less than the concentrations causing sperm toxicity and motility inhibition.
# Cytotoxicity against somatic cells was tested with feline fetus lung cells (FFL) cultivated as described by Andersson et al. and murine neuroblastoma cells (MNA) as described by Kulonen et al. as well as porcine kidney tubular epithelial cell line (PK-15), cultured as reported earlier. All somatic cell lines were maintained in an atmosphere of 95% air, 5% CO2 and 95% relative humidity at 37 °C on RPMI 1640 (complete medium) in a cell culture cabinet (Heracell 150i; Thermo Fisher Scientific, Vantaa, Finland). The detached cells were seeded onto 96 well microtiter plates and exposed to the purified OPA, the final concentration of which ranged from 48.8 ng mL^−1 to 25 μg mL^−1 containing 10 levels in methanol. […] Then, the plates were analyzed by a microtiter plate reader (Fluoroskan Ascent, Thermo Scientific, Vantaa, Finland) at the excitation and emission wavelengths of 544 nm and 590 nm, respectively. […]
# boar spermatozoa [5] = assay: Dissipation of mitochondrial membrane potential (ΔΨm), JC-1 staining; type: cell-based
# Method: The membrane-permeable 5,5',6,6'-tetrachloro-1,1',3,3'-tetraethylbenzimidazolylcarbocyanine iodide (JC-1) dye is widely used in apoptosis studies to monitor mitochondrial health. […] Therefore, the loss of ΔΨm was seen as decrease in orange fluorescence. In our cases, the staining for […] with JC-1 at 37 °C was enough to get the energized mitochondria stained orange and the plasma membrane green. This short staining was empirically optimized for getting the most reproducible differences between vehicle and toxin exposed sperm cells in Hoornstra et al.. After 2 min incubation, OPA completely depolarized the mitochondrial membrane of the sperm cells at the concentration of 1.25 μg mL^−1 and the exposed cells have already lost approximately 50% of their bright fluorescing mitochondria at the concentration of 500 ng mL^−1 (Figure 3, Table 1).
# The dissipation of the ΔΨm on static cells at room temperature was visualized by 5,5',6,6'-tetrachloro-1,1',3,3'-tetraethylbenzimidazolylcarbocyanine iodide (JC-1) (Molecular Probes, Eugene, OR, USA) staining according to Hoornstra et al. with minor modifications as follows: 200 μL of the boar semen exposed with the final OPA concentration of 2.5 μg mL^−1, 1.25 μg mL^−1, 0.5 μg mL^−1 and 0.125 μg mL^−1 was incubated at 37 °C for 2 min, stained with 0.3 μL of JC-1 (1 mg mL^−1 in DMSO) followed by another 2 min at 37 °C and viewed using an epifluorescence microscope (Eclipse E600, Nikon, Tokyo, Japan). All assays (PI + CAM and JC-1 staining) were performed in triplicate and for each sample five microscopic fields containing ca. 20 cells were inspected.
smiles,measurement,setting,value
"CC(C)=C[C@H]1C[C@H](C)[C@]2(CC[C@]3(C)C[C@H]4[C@H](C(=O)C[C@@]4(C)O)/C(C=O)=C\C[C@H]32)O1 [OPA, ophiobolin A]","IC50, induced cell death",L1210 cell line,120 µg/mL
same,EC50,"boar spermatozoa [1]; Spermatozoa, read-out: Toxic endpoint EC50, Shivering tail beating induction",0.5 µg/mL
same,Concentration inducing shivering tail beating with depolarisation of mitochondria,boar spermatozoa [1]; exposure at room temperature,< 1 µg/mL
same,EC50,boar spermatozoa [2],1.6 µg/mL
same,"IC50, reduction in the amount of viable cells",[3],32 µg/mL
same,IC50,[4],0.0488 µg/mL
same,Effect on JC-1 mitochondrial fluorescence,"boar spermatozoa [5]; 125 ng mL^−1 OPA, JC-1 staining",minimal difference compared to the untreated control
same,Loss of bright fluorescing mitochondria,"boar spermatozoa [5]; 500 ng mL^−1 OPA, JC-1 staining",approximately 50%
same,Concentration completely depolarizing the mitochondrial membrane of the sperm cells,"boar spermatozoa [5]; JC-1 staining, 2 min incubation at 37 °C",1.25 µg/mL
same,EC50,"boar spermatozoa [5]; Spermatozoa, read-out: Toxic endpoint EC50, Dissipation of ΔΨm",0.5 µg/mL
